Test results: PMC12519263, “Antifibrotic Efficacy of a Nintedanib–Peptide Conjugate and Diagnostic Potential of a Fluorescent Companion Probe Targeting αVβ6 Integrin in Idiopathic Pulmonary Fibrosis” (ACS Pharmacology & Translational Science, 2025)

Experiment: Body weight monitoring and tolerability in Study #2
Format: in vivo, C57Bl/6 mice
Conditions: triple oropharyngeal BLM, within the first 7 days, compared to saline group
Excerpt: Figure A illustrates the setup of the pharmacological experiment identified as Study #2 (see also Table S2 in the Supporting Information). After triple BLM instillation, all mice underwent μCT imaging on days 14 and 21, indicating the beginning and the end of the therapeutic window. , On day 14, the BLM-treated mice were divided into 5 groups, namely, Vehicle, NINT (23), NINT (94), PepNIN 1 (23), and Ligand 11 (23). The reference standard in our drug discovery studies is NINT (94), representing the ideal dosage (94 μmol/kg) of the FDA-approved drug that produces antifibrotic effects in the preclinical BLM model. To better emphasize the synergistic therapeutic effect of nintedanib when it is covalently conjugated with our integrin ligand, the stoichiometric dose of nintedanib within the PepNIN 1 group was reduced by four times (to 23 μmol/kg). […]
The experiments were carried out on male C57Bl/6 mice aged 7–8 weeks, purchased from Envigo (San Pietro al Natisone, Udine, Italy). […] All required measures were taken to mitigate the animals’ distress or discomfort, and a designated veterinarian or trained technicians assessed pain levels daily using a Visual Analogue Scale (VAS) ranging from 0 to 10. […]

In the case of Bleomycin hydrochloride [BLM], the body weight reduction is reported as 10–15%.
